Data as given in patent US20060002932A1, “Methods and compositions for enhancement of immunity by in vivo depletion of immunosuppressive cell activity” (priority 2004, published 2006).
“Also recorded” adds a separate entry of the source.

Assays:
[1] = tested on: CD4^+CD25^int memory T-cell pool; details: after DAB389IL-2 administration; fluM1, CMV, tetanus toxoid
[2] = tested on: CD4^+CD25^high regulatory T cells; assay: MTT cytotoxicity assay on isolated regulatory T cells; type: cell-based, human
Description: […] The formazan crystals were solubilized by adding 100 μL isopropanol/0.1 M hydrochloric acid and incubating at 37° C. for 2 hours. The absorbance of the formazan product was measured on an enzyme-linked immunosorbent assay (ELISA) plate reader at 570 nm.
Interferon-γ and IL-4 ELISPOT analyses were performed using PBMC obtained prior to, during, and after vaccination. PBMC were cultured overnight in complete RPMI 1640 medium. CD4^+ and CD8^+ T cells were isolated from PBMC by negative depletion (Miltenyi). After blocking, 1×10^5 T cells and 1×10^4 RNA-transfected DC were added to each well of 96-well nitrocellulose plates (Multiscreen-IP, Millipore) precoated with 2 μg/ml Interferon-γ capture antibody (Endogen) or with IL-4 capture antibody (BD Biosciences Pharmingen). Plates were incubated for 20 hours at 37° C., and biotinylated Interferon-γ detection antibody (Endogen) or biotinylated IL-4 antibody (BD Biosciences Pharmingen) was added to each well. Cells were then incubated for an additional two hours at room temperature, then with streptavidin-alkaline phosphatase (1 μg/ml; Sigma) and plates were developed with substrate (Kirkegaard & Perry Laboratories). After washing, spots were counted using an automated ELISPOT reader (Carl Zeiss). CTL assays were performed by coculturing RNA-transfected DC with autologous PBMC. Cells were restimulated once and IL-2 (20 units/ml) was added after five days and every other day thereafter. After 12 days of culture, effector cells were harvested. Target cells were labeled with 100 μCi of Na2[^51CrO4] (NEN) in 200 μl of complete RPMI 1640 for one hour at 37° C. in 5% CO2 and ^51Cr-labeled target cells were incubated in complete RPMI 1640 medium with effector cells for five hours at 37° C. Then, 50 μl of supernatant was harvested, and release of ^51Cr was measured with a scintillation counter. For proliferation assays, purified CD3^+ T cells were seeded into round-bottomed microplates in the presence of mRNA-transfected DC. […] Incorporation of thymidine was determined using a liquid scintillation counter.

[3] = tested on: renal tumor-specific CD4^+ T cells; assay: Cytokine profile of vaccine-induced CD4+ T cells (ELISPOT, Th1/Th2 bead array); type: in vivo, human
[4] = Clinical toxicity in cancer patients; type: in vivo, human
Description: All subjects received a total of three intradermal injections of total tumor RNA-transfected DC. The injections were given intradermally at biweekly intervals and consisted of 1×10^7 cells suspended in 200 μL 0.9% sodium chloride (Abbott Laboratories, Abbott Park, Ill.) at each vaccination cycle. Following treatment, subjects were evaluated for toxicity, immunological and clinical response to therapy. Follow-up visits occurred biweekly for three visits, monthly for one visit, then every 3 months or until the subject was removed from the study.
Having shown that regulatory T cell elimination is capable of enhancing T-cell responses in vitro, a clinical study was initiated to analyze the efficacy of this strategy to a) eliminate regulatory T cells and b) to enhance a vaccine-induced T-cell response in end-stage cancer patients. Seven patients with metastatic renal cell (RCC), and one subject with disseminated ovarian carcinoma (OVA) were treated in an institutional review board (IRB) and Food and Drug Administration (FDA)-approved pilot study. […] PBMCs were also obtained from a subject who received DAB389IL-2 only under separate informed consent.
Treatment of patients was performed following written informed consent as part of an Institutional Review Board- and Federal Drug Administration-approved protocol. Patients with histologically-confirmed metastatic RCC were eligible for this study. One patient with disseminated ovarian carcinoma was included and treated on a compassionate basis. All patients were required to have adequate hepatic, renal, and neurological function, a life expectancy of >6 months, and a Karnofsky performance status of >70%. Patients must have had recovered from all toxicities related to any prior therapy and have not received any chemotherapy, radiation therapy, or immunotherapy for at least 6 weeks prior to study entry. Excluded from the study were patients with CNS metastases, with a history of autoimmune disease, with serious intercurrent chronic or acute illnesses. Patients on immunosuppressive agents were also excluded. […] All subjects received 3 intradermal injections of tumor RNA-transfected DC. The injections were given intradermally at biweekly intervals and consisted of 1×10^7 cells suspended in 200 μL 0.9% sodium chloride at each vaccination. Following treatment, subjects were evaluated for clinical toxicity, immunological and clinical responses. Due to regulatory restrictions and, in some subjects, limited access to tumor tissue, no tumor biopsies were performed.
Having shown that Treg elimination is capable of enhancing T-cell responses in vitro, a clinical study was initiated to test the Treg depletion concept in a human vaccination setting. Eleven patients including 10 with metastatic RCC and one with disseminated ovarian carcinoma (OVA) were treated in an Institutional Review Board (IRB) and Food and Drug Administration (FDA)-approved study.

[5] = tested on: responder cells (PBMC) in MLR; assay: Allogeneic DC-stimulated mixed lymphocyte reaction (MLR) proliferation; type: cell-based, human
[6] = 6-hour exposure, viability over 48 hours

## denileukin diftitox [DAB389IL-2]
[1]
  antigen-specific proliferative reactivities against recall antigens: unchanged reactivities
[2]; [6]
  concentration giving complete depletion of CD4^+CD25^high cells: 5 nM
  concentration giving efficient killing of CD4^+CD25^high cells: 0.5 nM
[2]; 24 hours following exposure
  cell viability of CD4^+CD25^high regulatory T cells: significant reduction in cell viability
[3]; 18 hours stimulation with RCC RNA-transfected DC
  Th1/Th2 cytokine secretion by vaccine-induced T cells (bead array): secretion of Th-1 type cytokines (IL-2, Interferon-γ, or TNF-α), but not Th-2 type cytokines
[3]; one subject, DAB389IL-2 followed by vaccination
  Interferon-γ / IL-4 secreting renal tumor-specific CD4 T cells (ELISPOT): stimulation of Interferon-γ, but not IL-4-secreting renal tumor-specific CD4 T cells
[4]; average, 5 of 6 evaluable subjects
  reduction in absolute neutrophil counts (ANC): 10%
[4]; one subject
  decrease in absolute neutrophil counts (ANC): 20%
[4]; single i.v. dose 18 μg/kg
  ALT elevations: transient, grade II ALT elevations in one subject; also recorded: transient grade II serum alanine aminotransferase (ALT) elevations (n=1)
  constitutional symptoms: Grade I constitutional symptoms in two subjects; also recorded: grade I constitutional symptoms such as low-grade fever and malaise (n=4)
  serum rheumatoid factor: grade I elevation of serum rheumatoid factor (n=1)
[5]; DAB389IL-2 added two days after initiation of the MLR
  proliferation of responder cells: completely abrogated the proliferation of responder cells
[5]; pre-incubation of Treg with DAB389IL-2 5 nM
  inhibitory effect of Treg added to MLR: significantly abrogated their inhibitory effect
